Experimental data: patent publication US9775877B2, “Combinations with a backbone-cyclized peptide” (POLYPHOR AG, priority 2012, dated 2017)
Non-standard residues stand in square brackets, D forms with d. dDab = NCC[C@@H](N)C(=O)O; Orn = NCCC[C@H](N)C(=O)O; Dab = NCC[C@H](N)C(=O)O

System: Pseudomonas aeruginosa clinical isolate PAX11045
Assay: Efficacy in murine pneumonia model, compound 1 in combination with tigecycline (Example 1)
Type: in vivo
Procedure: Colony counts in lung were determined at 20 hours post treatment.
Fresh overnight colonies of PAX11045 from a 5% Horse Blood Agar plate were suspended in 0.9% sterile saline to approximately 10^8 CFU/ml and further diluted to approximately […]. Female mice (DBA/2, […], 18-22 g, Chales River) were anesthetized with 0.08 ml of Zoletil and inoculated via the nose with a pipette with 0.1 ml of the bacteria suspension containing approximately 10^6 CFU. 4 hours after inoculation, the mice were treated orally with 45 μl neurophen (20 mg ibuprofen/ml corresponding to approximately 30 mg/kg) as pain relief.
[…] As positive control Ciprofloxacin was used in the same manner with a fixed dose of 20 mg/kg.
Colony counts were determined post inoculation at 4 hours (untreated mice) and 24 hours (treated and vehicle-only treated mice). Immediately after the mice were sacrificed, the lungs were collected and frozen at −20° C. After thawing, the organs were homogenized in 1 ml 0.9% saline. Each sample was then 10 fold diluted in saline and 20 μl spots were applied on blood agar plates. All agar plates were incubated 18-24 hours at 35° C. in ambient air.

[1] = compound 1 in presence of 12.5 mg/kg tigecycline, mice, murine lungs

Row | Compound | effect on bacterial loads (tigecycline 12.5 mg/kg alone, s.c. single dose 3 h post infection, lung) | Top level (compound 1 in presence of 12.5 mg/kg tigecycline (s.c., 3 h post infection), mice, murine lungs) [log10 CFU/ml] | 2 log killing dose [1] [mg/kg] | Bottom level [1] [log10 CFU/ml] | Emax [1] [log10 CFU/ml] | Static dose [1] [mg/kg] | ED50 (compound 1 in presence of a fixed dose of tigecycline (12.5 mg/kg), mice, s.c., murine lungs, colony counts 20 h post treatment) [mg/kg]
1 | CN(C)c1cc(NC(=O)CNC(C)(C)C)c(O)c2c1C[C@H]1C[C@H]3[C@H](N(C)C)C(O)=C(C(N)=O)C(=O)[C@@]3(O)C(O)=C1C2=O [tigecycline, reference compound] | no effect | – | – | – | – | – | –
2 | cyclo(TWI[Dab][Orn][dDab][Dab]W[Dab][Dab]AS[dP]P) [compound 1] | – | 0.13 | 2.1 | −2.37 | 2.5 | 0.74 | 1.33
